Where “and” joins values, the source holds several entries; their conditions need not be identical. Equal entries are not always repeated. Where two headings read alike, the source gives them in different places.
Columns and labels:
TWIK-2 = assay: human 86Rb flux K2P selectivity panel; type: cell-based; conditions: 86Rb flux K2P panel
TASK-2 = assay: human 86Rb flux K2P selectivity panel; type: cell-based; conditions: 86Rb flux K2P panel
TASK-1 = assay: human 86Rb flux K2P selectivity panel; type: cell-based; conditions: 86Rb flux K2P panel
TASK-3 = assay: human 86Rb flux K2P selectivity panel; type: cell-based; conditions: 86Rb flux K2P panel
TRAAK = assay: human 86Rb flux K2P selectivity panel; type: cell-based; conditions: 86Rb flux K2P panel
TREK-1 = molecular target: T1, TREK-1 (Homo sapiens, UniProt O95069); assay: TREK-1 thallium flux assay (hTREK-1/CHO); type: cell-based; design: host or cells: CHO; conditions: for Emax: % activation relative to 10 µM BL-1249
T1 sequence (O95069 1-426): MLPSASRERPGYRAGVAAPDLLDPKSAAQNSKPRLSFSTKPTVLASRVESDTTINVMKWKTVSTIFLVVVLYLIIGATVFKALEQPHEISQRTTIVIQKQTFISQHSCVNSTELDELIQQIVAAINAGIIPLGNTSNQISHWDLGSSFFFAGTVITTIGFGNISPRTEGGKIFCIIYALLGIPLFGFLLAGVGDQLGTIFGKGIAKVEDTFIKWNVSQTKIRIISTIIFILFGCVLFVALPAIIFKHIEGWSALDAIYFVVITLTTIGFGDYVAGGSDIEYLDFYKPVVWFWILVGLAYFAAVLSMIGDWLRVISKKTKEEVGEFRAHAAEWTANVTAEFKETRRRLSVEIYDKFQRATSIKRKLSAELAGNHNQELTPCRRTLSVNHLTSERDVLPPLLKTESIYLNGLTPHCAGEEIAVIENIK
Description: Procedures for Biological Experiments
TREK-1 and TREK-2 thallium flux assay protocol
CHO cells stably expressing human TREK-1 (hTREK-1/CHO) were constructed at Evotec. […]
hTREK-1/CHO or hTREK-2/HEK were plated in 384-well plates at a density of 1.0x10^4 cells/well or 2.0x10^4 cells/well, respectively, and cultured overnight. After the wash by HBSS + 20 mM HEPES buffer, cells were loaded with Thallos dye for 1 hour at room temperature. After the wash […]
dissolved with HBSS + 20mM HEPES buffer were added to each well. After 10 minutes incubation at room temperature, thallium stimulus buffer were added to each well and the fluorescent intensity are measured by Panoptic. The final thallium concentration was 0.36 mM in […]
TREK-1 or 0.24 mM in TREK-2, respectively. […]

rat PK study = type: in vivo; conditions: plasma; for clearance: read-out: rat CLp; for Vd: read-out: rat Vss; for half-life: read-out: rat t1/2 (converted)
[1] = mouse predicted hepatic clearance; type: in vitro ADME
Description: Intrinsic clearance: Human or rat hepatic microsomes (0.5 mg/mL) and 1 µM test compound were incubated in 100 mM potassium phosphate pH 7.4 buffer with 3 mM MgCl2 at 37 °C with constant shaking. After a 5 min preincubation, the reaction was initiated by the addition of NADPH (1 mM). At selected time intervals (0, 3, 7, 15, 25, and 45 min), aliquots were taken and subsequently placed into a 96-well plate containing cold acetonitrile with internal standard (50 ng/mL carbamazepine). Plates were then centrifuged at 3000 rcf (4 °C) for 10 min, and the supernatant was transferred to a separate 96-well plate and diluted 1:1 with water for LC/MS/MS analysis. The in vitro half-life ( 1/2, min, Eq. 1), intrinsic clearance (CLint, mL/min/kg, Eq. 2), and subsequent predicted hepatic clearance (CLhep, mL/min/kg, Eq. 3) was determined employing the […]
where k represents the slope from linear regression analysis of the natural log percent remaining of a test compound as a function of incubation time […]
(2) CLint = in vitroT1/2 x mg microsomes x gram liver x kg body wt ascale-up factors: of 20 (human) or 45 (rat) […]
where Qh (hepatic blood flow, mL/min/kg) is 21 (human) or 70 (rat).
LC/MS/MS Bioanalysis of Samples from Plasma Protein Binding and Intrinsic Clearance […]
Samples were analyzed on a Thermo Electron TSQ Quantum Ultra triple quad mass spectrometer (San Jose, CA) via electrospray ionization (ESI) with two Themo Electron Accella pumps (San Jose, CA), and a Leap Technologies CTC PAL autosampler (Carrboro, NC). Analytes were separated by gradient elution on a dual column system with two Thermo Hypersil Gold (2.1 x 30 mm, 1.9 µm) columns (San Jose, CA) thermostated at 40 °C. HPLC mobile phase A was 0.1% formic acid in water and mobile phase B was 0.1% formic acid in acetonitrile. The gradient started […]
for 0.2 min; returned to 10% B in 0.1 min. The total run time was 1.3 min and the HPLC flow rate was 0.8 mL/min. […]

mouse TREK-1 = molecular target: T2, mouse TREK-1 (Mus musculus, UniProt P97438); assay: mouse TREK-1 MPC assay; type: cell-based; conditions: manual patch clamp
T2 sequence (P97438 1-426): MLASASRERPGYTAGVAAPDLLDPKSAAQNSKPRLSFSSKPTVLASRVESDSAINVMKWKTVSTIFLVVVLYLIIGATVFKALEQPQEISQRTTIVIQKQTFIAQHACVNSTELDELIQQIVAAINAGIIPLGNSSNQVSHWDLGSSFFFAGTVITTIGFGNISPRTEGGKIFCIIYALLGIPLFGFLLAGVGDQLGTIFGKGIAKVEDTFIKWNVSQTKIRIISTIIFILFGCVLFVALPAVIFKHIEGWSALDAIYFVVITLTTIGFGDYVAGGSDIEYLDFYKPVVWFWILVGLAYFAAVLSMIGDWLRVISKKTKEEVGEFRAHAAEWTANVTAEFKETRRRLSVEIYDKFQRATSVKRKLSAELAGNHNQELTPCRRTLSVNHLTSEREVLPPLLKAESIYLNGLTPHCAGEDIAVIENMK

[2] = Sprague-Dawley, intravenous, rat cassette PK study

Compound	EC50 (TREK-1) [nM]	Emax (TREK-1) [%]	mouse CLhep (predicted hepatic clearance) [1] [mL/min/kg]	EC50 (mouse TREK-1) [nM]	Emax (mouse TREK-1) [%]	also measured
O=C(NCc1ccc(OC(F)(F)F)cc1Cl)c1ccc2nncn2c1 [Compound 20]	–	–	–	–	–	selectivity against TWIK-2 over TREK-1/2 (TWIK-2): > 91 fold and > 85 fold; selectivity against TASK-2 over TREK-1/2 (TASK-2): > 91 fold and > 85 fold; selectivity against TASK-1 over TREK-1/2 (TASK-1): > 91 fold and > 85 fold; selectivity against TASK-3 over TREK-1/2 (TASK-3): > 91 fold and > 85 fold; selectivity against TRAAK over TREK-1 (TRAAK): 85 fold and > 85 fold
CS(=O)(=O)Nc1ccc(C(=O)NCc2ccc(Cl)cc2Cl)cc1 [Compound 13]	8100	85	–	–	–	clearance (rat PK study; rat PK profile): 3.5 mL/min/kg; Vd (rat PK study; rat PK profile): 0.787 L/kg; half-life (rat PK study; rat PK profile): 3 h
O=C(NCc1ccc(OC(F)(F)F)cc1F)c1ccc2ncnn2c1 [Compound 19b]	2800	95	17.8	2700	109	selectivity against TWIK-2 over TREK-2 (TWIK-2): > 150 fold; selectivity against TASK-2 over TREK-2 (TASK-2): > 150 fold; selectivity against TASK-1 over TREK-2 (TASK-1): > 150 fold; selectivity against TASK-3 over TREK-2 (TASK-3): > 150 fold; selectivity against TRAAK over TREK-2 (TRAAK): > 150 fold
O=C(NCc1ccc(Br)cc1Cl)c1ccc(-c2ncn[nH]2)cc1 [Compound 14a]	1600	93	33.0	1900	94	clearance (rat PK study; [2]): 20.5 mL/min/kg; Vd (rat PK study; [2]): 1.5 L/kg; half-life (rat PK study; [2]): 1.1 h
Cc1cc(OC(F)(F)F)ccc1CNC(=O)c1ccc2ncnn2c1 [Compound 19a]	3800	99	30.5	5000	106	–

From publication PMC11887051, “Discovery of ONO-2920632 (VU6011887): A Highly Selective and CNS Penetrant TREK-2 (TWIK-Related K+ Channel 2) Preferring Activator In Vivo Tool Compound” (ACS Chemical Neuroscience, 2025)
